This is an account of results in PMC4147344, “Discovery of novel non-ATP competitive FGFR1 inhibitors and evaluation of their anti-tumor activity in non-small cell lung cancer in vitro and in vivo” (Oncotarget, 2014).

The structures appear in SMILES notation. “And” between values parts separate entries of the source, which are not always exact repeats. Identical values can stand only once. Like-named read-outs stand apart in the source and are kept apart here.

The subject of data set [1] is FGFR1-overexpressing HEK293 cells. Put plainly: bFGF-induced phosphorylation of FGFR1 and ERK, western blot. Format: cell-based. The settings on record: bFGF 30 ng/mL for 10 min, pretreatment with compound.
Protocol: (C and D) FGFR1 over-expressing 293 cells were pretreated with compounds at indicated concentrations or vehicle (0.1% DMSO), respectively. Then, cells were stimulated with bFGF (30 ng/mL) for 10 min, and the phosphorylation level of FGFR1 and ERK in cell lysates was measured by western blot analysis. The figures were representative of 3 separate experiments (C). […] Statistical significance relative to bFGF alone group was expressed, * P <0.05, ** P < 0.01.
Cells or homogenated tumor tissues were lysated. The protein concentrations in all samples were determined by using the Bradford protein assay kit (Bio-Rad, Hercules, CA). The supernatant was run on 10% SDS-PAGE gel followed by being transferred to a PVDF membrane. After being blocked with 5% non-fat dry milk in TBST for 1.5h, the membrane was incubated with the primary antibody overnight followed by incubation with goat anti-rabbit IgG, HRP-linked antibody for 1 h. The blots were detected with an ECL detection kit (Bio-Rad, Hercules, CA) according to the manufacturer's procedure. The results were analyzed by Quantity One software to determine the relative band density ratio.
In data set [2] the test system is H460 cells. Put plainly: bFGF-induced phosphorylation of FGFR1, western blot. It is filed as cell-based, human. The settings on record: bFGF 30 ng/mL for 10 min, pretreatment with compound. How it is done:
(§1) Figure 3 […]25 inhibited proliferation and induced apoptosis in H460 cells (A) H460 cells were pretreated with compounds at indicated concentrations, followed by the treatment with bFGF (30 ng/mL) for 10 min. The phosphorylation level of FGFR1 in cell lysates was measured by western blot analysis. The column figures show the normalized optical density as a percentage of total FGFR1 control. (B) H460 cells were treated with compounds at concentrations (0.74, 2.22, 6.67, 20, and 60 μM) for 72 h. The MTT assay gives the respective IC50 values of compounds. (C) The time-course cell survival profile of H460 cells treated by compounds at 20 μM was detected through an MTT assay. (D) Effects of […]25 on caspase activation in H460 cells. […] The levels of cleaved caspase-3 and cleaved caspase-9 were determined by western blot analysis.
Background: A western blot detects proteins with antibodies after separation by electrophoresis.

Data set [3] relates to H460 cells. Briefly: MTT anti-proliferation assay. It is filed as cell-based, human. The settings on record: for Time-course cell survival (MTT): 20 μM, 0-72 h; for IC50: Homo sapiens, NCI-H460, 72 h, read-out: IC50 against H460 cells (MTT). How it is done: as §1
On the technique in general: Tetrazolium assays rely on reduction of a dye to a coloured formazan, in cell work by metabolically active cells.

Data set [4] concerns H460 cells. Put plainly: Caspase activation (cleaved caspase-3 and -9), western blot. It is filed as cell-based, human. As to conditions: 10 μM, 12 h. How it is done:
as §1

For data set [5], the system named is H460 cells. Put plainly: Apoptosis analysis, Annexin V/PI flow cytometry. Format: cell-based, human. As to conditions: 2.5, 5, 10 μM. In general terms: A flow cytometer gives signals particle by particle.
A further data set deals with H460 xenograft. Put plainly: In vivo anti-tumor study, H460 xenograft. On the set-up: species or system BALB/cA nude mice. As to conditions: for Tumor weight inhibition rate: 3 mg/kg/d i.p. once daily for 28 days; for Tumor volume: 3 mg/kg/d i.p., 28th day, compared to model group. How it is done:
(§2) Figure 4 Anti-tumor effects of compounds […] H460 xenograft models Xenografts were established in nude mice. […] (A) Tumor volume (mm^3) and (B) Tumor weight (g) were recorded (* P <0.05, ** P < 0.01). (C) Body weight of each mice was recorded. (D) pFGFR1 expressions in tumor tissues were detected by Western Blot with FGFR1 as internal control. (E) The levels of p-ERK, p-AKT, Bcl-2, CyclinD1, and COX-2 in tumor tissues were detected by immunohistochemical staining. Representative pictures are shown.

Data set [6] in a line: Body weight of mice in H460 xenograft study. As to conditions: for Change of body weight during treatment: 3 mg/kg/d i.p. for 28 days; for Body weight: 3 mg/kg/d i.p., in g (unit assumed). Format: in vivo, BALB/cA nude mice. How it is done: as §2
Data set [7] deals with H460 xenograft tumor tissue. Put plainly: Protein levels in xenograft tumor tissue (western blot, immunohistochemistry). As to conditions: 3 mg/kg/d i.p.; for Phosphorylated FGFR1 in tumor tissue (western blot): compared to untreated group; for Expression of Bcl-2, Cyclin D1 and cox-2 in tumor tissue (immunohistochemistry): compared with model group. Format: in vivo, BALB/cA nude mice. How it is done: as §2

In data set [8] the target is T1, FGFR1 (Homo sapiens, UniProt P11362).
T1 construct: purchased Carna Biosciences Inc. (Kobe, Japan)
T1 sequence (P11362 22-822): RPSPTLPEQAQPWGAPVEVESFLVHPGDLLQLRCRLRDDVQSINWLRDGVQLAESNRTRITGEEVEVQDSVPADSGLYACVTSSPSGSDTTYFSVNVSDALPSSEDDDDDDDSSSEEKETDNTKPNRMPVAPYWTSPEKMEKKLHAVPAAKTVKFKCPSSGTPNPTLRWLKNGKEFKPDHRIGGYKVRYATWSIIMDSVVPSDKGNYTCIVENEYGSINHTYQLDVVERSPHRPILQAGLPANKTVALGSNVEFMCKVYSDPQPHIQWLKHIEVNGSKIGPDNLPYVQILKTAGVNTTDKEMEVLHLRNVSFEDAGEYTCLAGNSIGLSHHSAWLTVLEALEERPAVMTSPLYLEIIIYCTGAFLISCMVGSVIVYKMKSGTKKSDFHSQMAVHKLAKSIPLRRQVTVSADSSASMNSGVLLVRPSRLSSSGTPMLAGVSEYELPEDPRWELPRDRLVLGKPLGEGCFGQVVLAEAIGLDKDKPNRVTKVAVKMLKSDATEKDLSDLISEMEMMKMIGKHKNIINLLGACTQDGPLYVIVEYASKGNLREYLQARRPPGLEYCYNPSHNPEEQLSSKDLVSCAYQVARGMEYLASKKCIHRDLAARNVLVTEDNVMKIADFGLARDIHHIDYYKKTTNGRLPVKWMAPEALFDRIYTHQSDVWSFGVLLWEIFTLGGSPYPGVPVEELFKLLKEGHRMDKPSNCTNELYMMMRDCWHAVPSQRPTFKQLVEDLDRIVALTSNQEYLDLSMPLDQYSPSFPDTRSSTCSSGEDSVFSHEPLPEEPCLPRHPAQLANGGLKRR
Briefly: Cell-free kinase activity assay (Caliper Mobility Shift Assay). It is filed as biochemical. As to conditions: ATP at Km; mean of 3-5 independent tests.
Protocol: (§3) Compounds were performed with caliper mobility shift assay for RTK inhibition, and the IC50 values were calculated using conversion rates. The data were shown as a mean of 3-5 independent tests.
(§4) The activity of tyrosine kinase including FGFR1, FGFR2, FGFR3, EGFR, VEGFR-2, c-MET, and PDGFR-β were tested by Caliper Mobility Shift Assay on Caliper EZ reader (Caliper Life Sciences, MA) according to the instructions provided. […] For each kinase assay, the ATP concentration used in the assay was set at the Km value of the corresponding kinase. […] In the electrophoretic mobility shift assays, product accumulation was expressed as percentage conversion, product peak height/(product peak height + substrate peak height).

For a further data set, the target named is T2, FGFR2 (Homo sapiens, UniProt P21802).
T2 construct: purchased Carna Biosciences Inc. (Kobe, Japan)
T2 sequence (P21802 22-821): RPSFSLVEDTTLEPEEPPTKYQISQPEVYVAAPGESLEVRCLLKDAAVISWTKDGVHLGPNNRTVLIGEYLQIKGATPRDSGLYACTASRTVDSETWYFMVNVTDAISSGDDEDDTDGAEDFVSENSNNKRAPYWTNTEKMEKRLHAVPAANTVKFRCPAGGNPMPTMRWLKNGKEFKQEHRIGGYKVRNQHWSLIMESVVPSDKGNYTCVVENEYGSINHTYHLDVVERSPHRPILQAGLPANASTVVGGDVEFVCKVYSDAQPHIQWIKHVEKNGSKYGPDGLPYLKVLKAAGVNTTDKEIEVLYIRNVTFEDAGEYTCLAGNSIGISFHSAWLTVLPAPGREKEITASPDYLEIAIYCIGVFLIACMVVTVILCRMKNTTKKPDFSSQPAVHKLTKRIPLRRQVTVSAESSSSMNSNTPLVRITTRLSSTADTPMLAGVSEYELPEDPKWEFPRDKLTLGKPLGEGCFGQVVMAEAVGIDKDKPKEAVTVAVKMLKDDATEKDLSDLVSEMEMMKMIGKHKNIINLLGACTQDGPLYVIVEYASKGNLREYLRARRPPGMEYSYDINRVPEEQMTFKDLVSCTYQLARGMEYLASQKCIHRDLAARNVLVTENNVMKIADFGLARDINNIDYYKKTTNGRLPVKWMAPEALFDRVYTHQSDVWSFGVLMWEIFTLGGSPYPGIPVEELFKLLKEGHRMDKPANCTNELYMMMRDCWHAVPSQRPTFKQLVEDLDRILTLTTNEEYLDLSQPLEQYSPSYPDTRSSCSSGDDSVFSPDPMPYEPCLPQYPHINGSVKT
Described as above. Format: biochemical.

For the next data set, the target named is T3, FGFR3 (Homo sapiens, UniProt P22607).
T3 construct: purchased Carna Biosciences Inc. (Kobe, Japan)
T3 sequence (P22607 23-806): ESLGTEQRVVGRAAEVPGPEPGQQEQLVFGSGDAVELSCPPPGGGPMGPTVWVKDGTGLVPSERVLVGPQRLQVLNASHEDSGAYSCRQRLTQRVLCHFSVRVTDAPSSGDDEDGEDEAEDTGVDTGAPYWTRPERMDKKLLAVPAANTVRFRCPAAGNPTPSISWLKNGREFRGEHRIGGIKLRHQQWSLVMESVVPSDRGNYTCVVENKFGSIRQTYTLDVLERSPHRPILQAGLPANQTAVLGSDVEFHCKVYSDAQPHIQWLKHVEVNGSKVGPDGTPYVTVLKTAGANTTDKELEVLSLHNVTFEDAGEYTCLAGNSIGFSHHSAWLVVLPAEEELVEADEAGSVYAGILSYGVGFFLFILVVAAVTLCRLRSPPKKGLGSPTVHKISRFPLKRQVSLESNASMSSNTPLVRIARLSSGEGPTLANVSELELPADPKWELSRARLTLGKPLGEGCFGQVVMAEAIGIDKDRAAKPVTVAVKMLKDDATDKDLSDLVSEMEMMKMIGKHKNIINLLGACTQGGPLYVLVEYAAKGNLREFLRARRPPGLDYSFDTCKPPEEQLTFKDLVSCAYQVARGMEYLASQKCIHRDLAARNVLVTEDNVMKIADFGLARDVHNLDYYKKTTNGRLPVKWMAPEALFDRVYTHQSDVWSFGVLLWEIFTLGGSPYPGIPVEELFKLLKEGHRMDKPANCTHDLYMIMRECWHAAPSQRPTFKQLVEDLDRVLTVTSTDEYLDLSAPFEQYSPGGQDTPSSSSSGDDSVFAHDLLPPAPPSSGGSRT
Described as above. Format: biochemical.

The target in a further data set is T4, EGFR (Homo sapiens, UniProt P00533).
T4 construct: purchased Carna Biosciences Inc. (Kobe, Japan)
Described as above. It is filed as biochemical. As to conditions: ATP at Km; mean of 3-5 independent tests.

Another data set addresses T5, VEGFR2 (Homo sapiens, UniProt P35968).
T5 construct: purchased Carna Biosciences Inc. (Kobe, Japan)
The description is as above. It is filed as biochemical. As to conditions: ATP at Km; mean of 3-5 independent tests.

Another data set addresses c-MET (Homo sapiens, UniProt P08581). The data set is described as above. As to conditions: ATP at Km; mean of 3-5 independent tests. It is filed as biochemical.
The target of a further data set is T6, PDGFRβ (Homo sapiens, UniProt P09619).
T6 construct: purchased Carna Biosciences Inc. (Kobe, Japan)
T6 sequence (P09619 33-1106): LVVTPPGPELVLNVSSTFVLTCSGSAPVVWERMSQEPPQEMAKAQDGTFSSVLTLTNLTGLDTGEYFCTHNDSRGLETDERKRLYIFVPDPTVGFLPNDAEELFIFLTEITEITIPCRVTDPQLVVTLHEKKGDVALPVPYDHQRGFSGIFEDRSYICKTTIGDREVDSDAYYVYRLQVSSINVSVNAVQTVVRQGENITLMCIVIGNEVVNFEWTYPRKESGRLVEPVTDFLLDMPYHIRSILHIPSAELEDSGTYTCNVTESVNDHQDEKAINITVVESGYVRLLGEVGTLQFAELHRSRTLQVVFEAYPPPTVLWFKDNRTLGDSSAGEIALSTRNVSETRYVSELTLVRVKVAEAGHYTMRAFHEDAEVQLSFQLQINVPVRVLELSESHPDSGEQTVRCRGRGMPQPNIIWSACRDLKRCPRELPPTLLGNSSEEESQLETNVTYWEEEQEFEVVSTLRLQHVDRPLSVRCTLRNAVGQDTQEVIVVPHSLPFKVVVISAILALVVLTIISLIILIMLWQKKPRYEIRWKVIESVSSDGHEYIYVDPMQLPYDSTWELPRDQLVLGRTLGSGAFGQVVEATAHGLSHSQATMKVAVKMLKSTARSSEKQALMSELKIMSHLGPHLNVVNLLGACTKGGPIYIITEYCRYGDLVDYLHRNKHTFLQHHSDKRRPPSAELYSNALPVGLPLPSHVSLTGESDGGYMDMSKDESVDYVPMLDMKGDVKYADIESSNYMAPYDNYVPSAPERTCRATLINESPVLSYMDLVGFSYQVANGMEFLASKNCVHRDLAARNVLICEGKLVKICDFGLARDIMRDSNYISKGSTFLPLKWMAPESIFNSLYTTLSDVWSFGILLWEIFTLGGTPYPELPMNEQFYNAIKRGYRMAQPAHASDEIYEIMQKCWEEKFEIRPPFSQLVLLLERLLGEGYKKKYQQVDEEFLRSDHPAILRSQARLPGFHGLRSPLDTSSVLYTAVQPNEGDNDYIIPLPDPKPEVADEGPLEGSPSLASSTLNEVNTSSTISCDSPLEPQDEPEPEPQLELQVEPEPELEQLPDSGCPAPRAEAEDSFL
The description is as above. The settings on record: ATP at Km; mean of 3-5 independent tests. It is filed as biochemical.

Data set [9] concerns the target T1, FGFR1. Briefly: ATP competitive inhibition assay (caliper mobility shift assay). It is filed as biochemical. The settings on record: ATP 33-4192 μM, substrate constant.
Protocol: In the experiments for testing the relationship between the compounds and ATP, the concentration of the substrate was constant, while the concentrations of ATP were set at 4192, 2096, 1048, 524, 262, 131, 66, and33 μM. The global competitive inhibition fit for the compounds was performed based on percent conversion = (Vmax*X)/{km*[([1] + I/Ki)^n] + X}, where X is the ATP concentration, and n is the Hill coefficient.

c-MET, sequence (P08581 25-1390): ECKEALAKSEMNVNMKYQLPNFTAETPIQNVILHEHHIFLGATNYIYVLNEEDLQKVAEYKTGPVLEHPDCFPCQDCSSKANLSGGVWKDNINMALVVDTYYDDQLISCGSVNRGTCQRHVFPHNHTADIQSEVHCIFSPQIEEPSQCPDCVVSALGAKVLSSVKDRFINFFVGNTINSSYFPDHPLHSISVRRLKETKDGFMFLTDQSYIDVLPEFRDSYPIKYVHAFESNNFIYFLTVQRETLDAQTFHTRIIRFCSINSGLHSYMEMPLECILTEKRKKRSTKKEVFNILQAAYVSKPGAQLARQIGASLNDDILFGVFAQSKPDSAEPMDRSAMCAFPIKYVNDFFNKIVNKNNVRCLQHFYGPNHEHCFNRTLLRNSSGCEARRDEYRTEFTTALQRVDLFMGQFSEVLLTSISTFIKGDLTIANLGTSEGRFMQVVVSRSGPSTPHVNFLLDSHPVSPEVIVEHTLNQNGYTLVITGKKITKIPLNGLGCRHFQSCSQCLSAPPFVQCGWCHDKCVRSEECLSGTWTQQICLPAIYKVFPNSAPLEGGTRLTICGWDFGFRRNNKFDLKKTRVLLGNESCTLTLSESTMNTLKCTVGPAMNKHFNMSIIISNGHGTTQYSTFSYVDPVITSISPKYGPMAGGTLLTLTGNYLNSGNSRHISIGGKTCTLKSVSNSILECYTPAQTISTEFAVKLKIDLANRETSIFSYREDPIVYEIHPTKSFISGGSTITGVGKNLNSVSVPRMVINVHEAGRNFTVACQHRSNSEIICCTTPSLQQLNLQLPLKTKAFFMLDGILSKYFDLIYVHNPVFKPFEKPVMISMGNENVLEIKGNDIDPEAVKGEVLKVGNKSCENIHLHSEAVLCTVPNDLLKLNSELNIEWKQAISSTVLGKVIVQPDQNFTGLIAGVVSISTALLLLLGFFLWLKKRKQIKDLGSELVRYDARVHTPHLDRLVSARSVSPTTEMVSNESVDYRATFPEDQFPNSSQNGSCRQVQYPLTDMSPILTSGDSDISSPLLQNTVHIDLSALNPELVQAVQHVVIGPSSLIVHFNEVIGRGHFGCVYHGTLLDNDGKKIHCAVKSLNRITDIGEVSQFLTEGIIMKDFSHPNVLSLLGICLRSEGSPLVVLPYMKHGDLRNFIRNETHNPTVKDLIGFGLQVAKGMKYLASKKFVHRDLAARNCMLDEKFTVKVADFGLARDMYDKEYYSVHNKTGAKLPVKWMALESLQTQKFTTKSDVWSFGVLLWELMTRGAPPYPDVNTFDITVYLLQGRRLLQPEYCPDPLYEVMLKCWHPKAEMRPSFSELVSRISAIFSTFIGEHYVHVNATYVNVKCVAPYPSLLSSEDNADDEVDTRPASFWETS
Protocol for FGFR2: as §3, §4
Protocol for FGFR3: as §3, §4
Protocol for PDGFRβ: as §3, §4
Protocol for VEGFR2: as §3, §4
Protocol for c-MET: as §3, §4

With `O=C1/C(=C/c2ccccc2Cl)CNC/C1=C\c1ccccc1Cl` [Aea4], the “Phosphorylation of FGFR1 and ERK” value in data set [1] is “inhibited their phosphorylation of FGFR1 and ERK in a dose-dependent manner”. Further, the “Phosphorylation of FGFR1” value in the data set on H460 cells [2] is listed as “inhibited this effect in a dose-dependent fashion”. For the same compound, in the data set on H460 cells [3], the “Time-course cell survival (MTT)” value was “inhibit cell proliferation and increase cell death of H460 time-dependently”; the IC50 came out at 5 µM. In addition, in the data set on H460 cells [4], the “Expression of cleaved caspase 3 and 9” value is recorded as “significantly increased”. For the same compound, in the data set on H460 cells [5], the Apoptotic cell rate entry is reported as “induced H460 cell apoptosis in a dose-dependent manner”. Besides, in the data set on H460 xenograft, the “Tumor weight inhibition rate” value came out at 55.0% and the Tumor volume entry is on record as “significant reduction in tumor volume at the 28th day”. Also, in data set [6], the “Change of body weight during treatment” value is “no obvious change”. The Body weight in data set [6] (Week 1st) came to 23.37 ± 0.73. This compound showed a Body weight in data set [6] (Week 2nd) of 24.94 ± 0.83. Moreover, the Body weight in data set [6] (Week 3rd) is recorded as 25.81 ± 0.85. This compound also displayed a Body weight in data set [6] (Week 4th) of 24.94 ± 0.79. Also, in data set [7], the “Phosphorylated FGFR1 in tumor tissue (western blot)” value is given as “decreased expression of phosphorylated FGFR1”; the “Expression of Bcl-2, Cyclin D1 and cox-2 in tumor tissue (immunohistochemistry)” value is “effectively restrained the expression of Bcl-2, Cyclin D1 and cox-2”.

On to `O=C1/C(=C/c2ccccc2Br)CNC/C1=C\c1ccccc1Br` [Aea25], for which the IC50 at FGFR1 [8] is 8.8 µM and 6.5 µM; on FGFR2, 43.3 µM; at FGFR3, 43.2 µM; at EGFR it was 33.3 µM; at VEGFR2 it was 28.6 µM; on c-MET, 8.2 µM. Besides, the IC50 was found to be 84 µM on PDGFRβ and 5.8 µM with H460 cells [3]. Further, on FGFR1 [9], the “Effect of increased ATP concentration on FGFR1 inhibition (mode of inhibition)” value is “ATP independent manner”. In addition, the “Phosphorylation of FGFR1 and ERK” value in data set [1] is “inhibited their phosphorylation of FGFR1 and ERK in a dose-dependent manner”. The “Phosphorylation of FGFR1” value in the data set on H460 cells [2] is given as “inhibited this effect in a dose-dependent fashion”. Moreover, the “Time-course cell survival (MTT)” value in the data set on H460 cells [3] is “inhibit cell proliferation and increase cell death of H460 time-dependently”. Besides, the “Expression of cleaved caspase 3 and 9” value in the data set with H460 cells [4] is listed as “significantly increased”. In the data set with H460 cells [5], the Apoptotic cell rate entry is on record as “induced H460 cell apoptosis in a dose-dependent manner”. In the data set on H460 xenograft, the “Tumor weight inhibition rate” value was found to be 66.5%. Also, the Tumor volume entry in the data set with H460 xenograft is listed as “significant reduction in tumor volume at the 28th day”. In addition, the “Change of body weight during treatment” value in [6] is given as “no obvious change”. Besides, the Body weight turned out to be 22.01 ± 0.75 in data set [6] (Week 1st), 24.02 ± 0.53 in data set [6] (Week 2nd), 25.26 ± 0.38 in data set [6] (Week 3rd) and 25.36 ± 0.51 in data set [6] (Week 4th). The “Phosphorylated FGFR1 in tumor tissue (western blot)” value in data set [7] is “decreased expression of phosphorylated FGFR1”. Also, the “Expression of Bcl-2, Cyclin D1 and cox-2 in tumor tissue (immunohistochemistry)” value in [7] was “effectively restrained the expression of Bcl-2, Cyclin D1 and cox-2”.

On to `C[C@H](Cc1ccc(O)c(O)c1)[C@@H](C)Cc1ccc(O)c(O)c1` [NDGA, Nordihydroguaiaretic acid, reference compound], for which the concentration for half-maximal inhibition (IC50) at FGFR1 [8] is 24.5 µM; on FGFR2 (ATP at Km, mean of 3-5 independent tests, read-out: IC50 FGFR2), above 100 µM; at FGFR3 (ATP at Km, mean of 3-5 independent tests, read-out: IC50 FGFR3) it was 72.4 µM; at EGFR, 89.9 µM; on VEGFR2 it was above 100 µM; at c-MET, above 100 µM. The IC50 at PDGFRβ was above 100 µM; in the data set with H460 cells [3] it was 15.6 ± 1.2 µM. The “Effect of increased ATP concentration on FGFR1 inhibition (mode of inhibition)” value at FGFR1 [9] is “did not affect the rate of FGFR1 substrate phosphorylation”.

The IC50 is the concentration that inhibits the measured activity by half.
